Tests used:
[1] = system: Eker rats carrying Tsc2 germline mutation; conditions: early-life exposure during development of the uterus, cited from earlier work
HuLM cells = test: Cell proliferation, trypan blue exclusion assay, METTL3 inhibition; format: cell-based, human; conditions: 1-10 μM, 24 hours, vs DMSO vehicle, FIG. 9
Description: The HuLM cell line was cultured and maintained in phenol red-free, Dulbecco's Modified Eagle Medium: Nutrient Mixture F-12. The cells were grown at 37° C. and 5% CO2 in an incubator with saturating humidity.
Cell proliferation was measured using trypan blue exclusion assay. The cells were cultured in the absence or presence of the METTL3 inhibitor STM2457 at a dose range from 1-10 μM for 24 hours. DMSO was used as a vehicle control. Cells were trypsinized, collected by centrifuge, and resuspended in serum-free medium. Equal volumes of 0.4% trypan blue and cell suspension were mixed and cells were counted using a hemacytometer. This assay was performed three times in triplicate.

Compound	tumor multiplicity and size ([1]; genetically predisposed animals)	tumor-suppressor-gene penetrance ([1]; spontaneous frequency 65%) [%]	cell proliferation of UF cells (relative cell numbers) (HuLM cells)
CC/C(=C(/CC)c1ccc(O)cc1)c1ccc(O)cc1 [diethylstilbestrol]	increases	> 90	–
STM2457	–	–	decreases the cell proliferation

From patent publication US12685734B2, “N6-methyladenosine regulators in uterine fibroids” (The University of Chicago, priority 2021, dated 2026)
